Assay [1] addresses T1, Dihydrofolate reductase (Homo sapiens) (UniProt P00374).
T1 sequence (whole entry): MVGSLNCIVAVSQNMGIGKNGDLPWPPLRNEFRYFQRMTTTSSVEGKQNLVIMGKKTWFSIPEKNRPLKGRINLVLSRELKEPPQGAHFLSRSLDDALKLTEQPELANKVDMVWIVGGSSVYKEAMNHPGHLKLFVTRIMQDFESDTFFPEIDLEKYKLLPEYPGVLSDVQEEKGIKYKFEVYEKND
Description: Inhibition of human DHFR expressed in Saccharomyces cerevisiae TB5 assessed as yeast growth inhibition after 3 days by radial spoke assay

Assay [2] addresses T2, Dihydrofolate reductase (Mycobacterium tuberculosis) (UniProt P9WNX1).
T2 sequence (whole entry): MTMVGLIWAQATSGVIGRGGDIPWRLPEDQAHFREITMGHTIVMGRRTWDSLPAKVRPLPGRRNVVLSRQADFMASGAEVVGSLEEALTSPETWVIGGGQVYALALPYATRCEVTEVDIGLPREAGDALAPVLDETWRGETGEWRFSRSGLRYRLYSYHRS
Description: Inhibition of Mycobacterium tuberculosis DHFR expressed in Saccharomyces cerevisiae TB5 assessed as yeast growth inhibition after 3 days by radial spoke assay

Assay [3] concerns the target T3, Dihydrofolate reductase (Saccharomyces cerevisiae S288c) (UniProt P07807).
T3 sequence (whole entry): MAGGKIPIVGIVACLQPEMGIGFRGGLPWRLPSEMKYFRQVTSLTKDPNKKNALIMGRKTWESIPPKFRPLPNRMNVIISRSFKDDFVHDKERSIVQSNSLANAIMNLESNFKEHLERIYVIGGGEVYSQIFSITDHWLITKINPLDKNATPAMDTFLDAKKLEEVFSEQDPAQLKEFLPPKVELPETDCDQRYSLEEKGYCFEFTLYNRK
Description: Inhibition of yeast DHFR expressed in Saccharomyces cerevisiae TB5 assessed as yeast growth inhibition by after 3 days by radial spoke assay

SMILES strings stand for the structures.

For `Nc1ncc(-c2ccccc2)c(CCc2ccccc2)n1`, the IZ in assay [1], in assay [2] and in assay [3] was 5 mm in each case.
In the case of `Nc1nc(N)c(-c2ccccc2)c(CCCCCO)n1`, the IZ in assay [1] is 7 mm; in assay [2] it was 7 mm; in assay [3] it was 9 mm.
For the compound `Nc1nc(N)c(-c2ccc(Cl)c(Cl)c2)c(CCCCCO)n1`, the IZ in assay [1], in assay [2] and in assay [3] was 9 mm in each case.
In the case of `Nc1nc(N)c(-c2ccc(Br)cc2)c(CCCCCO)n1`, the IZ is 8 mm in assay [1], 8 mm in assay [2] and 9 mm in assay [3].
Take `Nc1nc(N)c(-c2ccc(Cl)c(Cl)c2)c(CC[C@@H](O)[C@@H](O)CO)n1`: the IZ in assay [1], in assay [2] and in assay [3] was 8 mm throughout.
With `Nc1nc(N)c(-c2ccc(Br)cc2)c([C@H](O)[C@H](O)CO)n1`, the IZ in assay [1], in assay [2] and in assay [3] was 5 mm in each case.
`Nc1nc(N)c(-c2ccc(Cl)cc2)c([C@H](O)[C@H](O)CO)n1`: the IZ in assay [1], in assay [2] and in assay [3] was 5 mm in each case.
Regarding `Nc1nc(N)c(-c2ccccc2)c(CC[C@@H](O)[C@@H](O)CO)n1`, the IZ worked out at 6 mm in assay [1], 11 mm in assay [2] and 6 mm in assay [3].
`CCc1nc(N)nc(N)c1-c1cccc(Cl)c1`: the figures for the IZ in assay [1], in assay [2] and in assay [3] were 6 mm, 5 mm and 5 mm, respectively.
With `Nc1nc(N)c(-c2ccc(Br)cc2)c(CC[C@H](O)[C@@H](O)CO)n1`, the figures for the IZ in assay [1], in assay [2] and in assay [3] were 5 mm, 8 mm and 6 mm, respectively.
For `Nc1nc(N)c(-c2ccc(Br)cc2)c(CC[C@@H](O)[C@@H](O)CO)n1`, the values for the IZ in assay [1], in assay [2] and in assay [3] were 6 mm, 7 mm and 8 mm, respectively.
Regarding `Nc1nc(N)c(-c2ccc(Cl)cc2)c(CC[C@H](O)[C@@H](O)CO)n1`, the IZ in assay [1] came out at 7 mm; in assay [2], 7 mm; in assay [3], 6 mm.
Regarding `Nc1nc(N)c(-c2ccc(Cl)cc2)c(CC[C@@H](O)[C@@H](O)CO)n1`, the IZ in assay [1] worked out at 7 mm; in assay [2], 9 mm; in assay [3], 7 mm.
`Nc1nc(N)c(-c2ccccc2)c(CC[C@H](O)[C@@H](O)CO)n1`: the IZ in assay [1] came to 8 mm; in assay [2] it was 9 mm; in assay [3] it was 8 mm.
As to `Nc1nc(N)c(-c2ccc(Cl)c(Cl)c2)c([C@H](O)[C@H](O)CO)n1`, the figures for the IZ in assay [1], in assay [2] and in assay [3] were 8 mm, 8 mm and 7 mm, respectively.
On to `Nc1nc(N)c(-c2ccc(Cl)cc2)c(CCCCCO)n1`, for which the IZ in assay [1], in assay [2] and in assay [3] was 8 mm each time.
As to `Nc1nc(N)c(-c2ccccc2)c([C@H](O)[C@H](O)CO)n1`, the IZ in assay [1], in assay [2] and in assay [3] was 5 mm each time.

The values are drawn from ChEMBL document CHEMBL1143059, “Structure-based design, synthesis and preliminary evaluation of selective inhibitors of dihydrofolate reductase from Mycobacterium tuberculosis” (Bioorg Med Chem, 2007).
